Laboratory results reported in US6537797B1, “Compositions and methods useful in bioremediation of polychlorinated biphenyls” (Indiana University, Advanced Research and Technology …, priority 1999, dated 2003).

Key:
Assay type in all cases: cell-based
[1] = tested on: consortia of bacterial strains from PCB-contaminated tertiary lagoon sludge; experiment: Degradation of selected PCB congeners in aerobic enrichment cultures; conditions: 100 ppm (w/v) mixture of five PCB congeners, with or without biphenyl cosubstrate; hexane extraction 45 days after inoculation, GC
Text: A consortia of bacterial strains was isolated from tertiary lagoon sludge that was contaminated with PCBs for over twenty five years. The sludge was collected from the Winston-Thomas sewage treatment plant in Bloomington, Ind. PCB-degrading strains were enriched using a minimal medium comprising a 100 ppm (w/v) mixture of the following five PCB congeners as the carbon source: 2,3-dichlorobiphenyl (DCBP), 2,4,4′-trichlorobiphenyl (TCBP), 2,4,6-trichlorobiphenyl, 2,2′,5,5′-tetrachlorobiphenyl, and 2,2′,4,4′,5,5′-hexachlorobiphenyl. Biphenyl was also added to the medium in some samples as an additional carbon source to stimulate the cometabolism of biphenyl and the PCBs. About 30-35 milliliters of the medium was inoculated with 5-10 milliliters of PCB-contaminated sludge and incubated in 160-mL serum bottles sealed with Teflon-coated stoppers. The bottles were incubated horizontally on a shaker table at room temperature. The headspace in the bottles was purged with air once a week to maintain aerobic conditions. Every 4-6 weeks, 10% of the culture was transferred to fresh medium. […] The concentrations of the PCB congeners were determined by extracting bottles with hexane 45 days after inoculation (a single bottle extraction), and analyzing hexane extracts by gas chromatography using a DB-5 column (J&W Scientific, Folsum, Calif.) and an electron capture detector. The results from this analysis are depicted in FIG. 1.

[2] = tested on: bacterial strain SK-4; experiment: Growth substrate tests in liquid medium; conditions: initial concentration 100 parts per million, except chlorobenzoate 2-3 millimolar
Protocol: (§1) The ability of the four isolated strains to grow on selected polychlorobiphenyls as a sole carbon source was assessed.
(§2) (All tests were conducted in a liquid medium. The initial concentration of the organic substrate was 100 parts per million, except chlorobenzoate, which was 2-3 millimolar).

[3] = tested on: bacterial strain SK-3; experiment: Growth substrate tests in liquid medium; conditions: initial concentration 100 parts per million, except chlorobenzoate 2-3 millimolar
Protocol: as §1, §2

[4] = tested on: bacterial strain SK-2; experiment: Growth substrate tests in liquid medium; conditions: initial concentration 100 parts per million, except chlorobenzoate 2-3 millimolar
Protocol: as §1, §2

[5] = tested on: bacterial strain SK-1; experiment: Growth substrate tests in liquid medium; conditions: initial concentration 100 parts per million, except chlorobenzoate 2-3 millimolar
Protocol: as §1, §2

[6] = tested on: bacterial strain SK-3; experiment: Characterization of SK-3: growth on and degradation of chlorobiphenyls and chlorobenzoates; conditions: for Chloride and chlorobenzoic acid (CBA) formed on degradation by SK-3: 88 hours, 23° C., aerobic, shaker table
Protocol: The concentrations of chlorobenzoates and dichlorobiphenyls were assessed after hexane extraction of bottles using gas chromatography analysis of the extracts with an electron capture detector. Chlorobenzoates were analyzed using standard columns after derivitization with pentafluorobenzyl bromide. Dichlorobiphenyls were analyzed using a DB-5 column (J&W Scientific, Fulsom, Calif.).
The results from this experiment are depicted in FIG. 5.
The growth of SK-3 on 4-chlorobiphenyl (4-CB) was compared with growth on its non-chlorinated form, biphenyl. […] The results from this experiment are depicted in FIG. 6. The concentration of chloride ion was determined using ion chromatography on a standard Dionex ion chromatography column. The concentration of 4-CB was assessed after hexane extraction of bottles by analyzing the hexane extracts using gas chromatography on a DB-5 column (J&W Scientific, Fulsom, Calif.) and an electron capture detector.
The growth of SK-3 on chlorobenzoates was assessed. […] The results from this experiment are depicted in FIG. 7.
The degradation of three different monochlorobiphenyls, (2-CB, 3-CB, and 4-CB) by SK-3 was assessed at 23° C. under aerobic conditions on a shaker table. After incubation of SK-3 with the selected monochlorobiphenyl for 88 hours, the concentrations of chloride and the corresponding chlorobenzoic acids (CBA) was assessed as described herein. The results from this experiment are depicted in FIG. 8.
The growth of SK-3 on dichloro-biphenyls was also assessed. […] The results of this experiment are depicted in FIG. 9.

[7] = tested on: bacterial strain SK-4; experiment: Characterization of SK-4: growth on and degradation of 2,2′-DCBP and 2,4′-DCBP; conditions: 1.5×10^7 cells per milliliter
Protocol: The same methods for determining concentrations of analytes and for the incubation of the bacterial strain with growth substrate described herein for the previous analyses were used in the experiments to characterize SK-4. The concentration of SK-4 cells in the experiments was 1.5×10^7 cells per milliliter and the concentration of 2,2′-DCBP or 2,4′-DCBP was 100 milligrams per liter. […] Ortho-substituted congeners are common degradation products of anaerobic reductive dechlorination of more highly chlorinated PCBs (PCBs comprising more than two chlorine atoms) by anaerobic bacteria.
2,2′-DCBP was supplied at a concentration of 100 milligrams per liter dissolved in heptamethyl nonane (HMN), a non-biodegradable PCB solvent. Controls contained HMN but lacked 2,2′-DCBP.

[8] = substrate in heptamethyl nonane

Compound	Degradation of PCB congener in aerobic enrichment cultures [1]	Growth of SK-4 on the substrate as sole carbon source [2]	Growth of SK-3 on the substrate as sole carbon source [3]	Growth of SK-2 on the substrate as sole carbon source [4]	Growth of SK-1 on the substrate as sole carbon source [5]	Chloride and chlorobenzoic acid (CBA) formed on degradation by SK-3 [6]	Growth of SK-4 on the substrate as sole carbon source ([7]; 100 milligrams per liter)	Chloride release on degradation by SK-4 [7, 8]	Chlorobenzoate production on degradation by SK-4 [7, 8]	Release of chloride during degradation by SK-3 ([6]; chloride by ion chromatography)
Clc1ccc(-c2ccc(Cl)cc2Cl)cc1 [2,4,4′-TCBP, 2,4,4′-trichlorobiphenyl]	degraded only in the bottles which contained biphenyl as a cosubstrate									
c1ccc2ccccc2c1 [Naphthalene]		No	No	No	No					
Clc1cccc(-c2ccccc2)c1 [3-chlorobiphenyl]		Yes	Yes	Yes	Yes	transformed 3-CB to 3-CBA without producing chloride				
O=C(O)c1ccccc1Cl [2-chlorobenzoate]		No	No	No	No					
Clc1ccccc1-c1ccccc1Cl [2,2′-DCBP, 2,2′-dichlorobiphenyl]		exhibited growth and Yes	No	No	No		growth	stoichiometric release of chloride	completely transformed into 2-CBA	
Oc1ccccc1 [Phenol]		Yes	Yes	No	Yes					
Clc1ccc(Cl)c(-c2ccccc2)c1 [2,5-DCBP]		No	No	No	Likely					
Clc1ccc(-c2ccccc2)cc1 [4-chlorobiphenyl]		Yes	Yes	Yes	Yes	did not generate 4-CBA				stoichiometric production of chloride
O=C(O)CCl [Chloroacetate]		Yes	Yes	No	Yes					
Clc1ccccc1-c1cccc(Cl)c1Cl [2,2′,3-TCBP]		No	No	No	No					
O=C(O)c1cccc(Cl)c1 [3-chlorobenzoate]		No	No	No	No					
2,3,4-trichlorobenzoate			No	No	No					
Clc1cc(Cl)c(-c2ccccc2)c(Cl)c1 [2,4,6-TCBP, 2,4,6-trichlorobiphenyl]	degraded only in the bottles which contained biphenyl as a cosubstrate									
Clc1cccc(-c2cccc(Cl)c2)c1 [3,3′-DCBP]		No	No							
Clc1ccc(Cl)c(-c2ccccc2Cl)c1 [2,2′,5-TCBP]		No								
c1ccc(-c2ccccc2)cc1 [Biphenyl]		Yes	Yes	Yes	Yes					
Clc1cc(Cl)cc(-c2ccccc2)c1 [3,5-DCBP]		No	No	No	No					
Clc1ccc(-c2ccc(Cl)cc2)cc1 [4,4′-DCBP]		No	No							
O=C(O)c1ccccc1 [Benzoate]		Yes	Yes	Yes	Yes					
Clc1ccccc1-c1ccccc1 [2-chlorobiphenyl]		Yes	Yes	Yes	Yes	partial release of chloride and production of 2-CBA				
Clc1ccc(-c2ccccc2Cl)cc1Cl [2′,3,4-TCBP]		No	No	No	No					
